Experimental data reported in patent EP1363614B1, “USE OF 2-AMINO-1-(4-HYDROXY-3-METHANESULPHONAMIDOPHENYL)ETHANOL FOR TREATING URINARY INCONTINENCE” (Boehringer Ingelheim Pharma GmbH & Co. KG, priority 2001, dated 2002).

Legend:
[1] = Metabolism: substrate breakdown by the enzyme CYP2D6; assay type: in vitro ADME; details: 30 minutes' incubation with CYP2D6; read-out: % Substrate breakdown after 30 minutes' incubation with CYP2D6
Protocol: To determine the metabolism the enzyme CYP2D6 was allowed to act on the hydrochloride of the compound 1 according to the formula I (2-amino-1-(4-hydroxy-3-methanesulphonamidophenyl)ethanol). After 30 minutes a check was made to determine how much of the substance had been broken down by the enzyme. (-)-R-2-Amino-1-(2-fluoro-5-methanesulphonamido-phenyl)ethanol 2 was used as a comparison.

human urethra = assay: Efficacy: contraction of human urethra compared with noradrenaline; assay type: cell-based; details: percentage of contraction compared with noradrenaline
Protocol: (§1) The efficacy and selectivity of the compound according to the invention is determined as follows, using the same findings as described in 1:
Maximum contraction in the dog and activity on human urethra are percentages of contraction compared with noradrenaline.

[2] = tested on: dog's femoral artery; carotid artery in the dog; assay: Selectivity in the dog: femoral artery versus carotid artery contraction; assay type: cell-based; details: difference of percentage contraction of dog's femoral artery at 10^-5 M and percentage contraction of carotid artery at 10^-5 M
Protocol: as §1
Selectivity in the dog is the difference obtained from the percentage contraction of the dog's femoral artery at 10^-5 M and percentage contraction of the carotid artery in the dog at 10^-5 M.

| Structure (SMILES) | metabolised at 0.5 h [1] [%] | Emax (human urethra) [%] | selectivity in the dog [2] |
| --- | --- | --- | --- |
| CS(=O)(=O)Nc1cc(C(O)CN)ccc1O (stereo not drawn) [Compound 1, 2-amino-1-(4-hydroxy-3-methanesulphonamidophenyl)ethanol] | 1.4 | 120 | 53 |
| CS(=O)(=O)Nc1ccc(F)c([C@@H](O)CN)c1 [Compound 2, (-)-R-2-Amino-1-(2-fluoro-5-methanesulphonamido-phenyl)ethanol] | 2.1 | 48 | 40 |
